Data reported in the kinase profiling compilation of Christmann-Franck et al. (2016).
Values joined by “and” are separate entries in the source; they are usually repeats but may differ in a detail not shown here. Equal values may be shown once.

What was measured:
Experiment in all cases: radiometric filter-binding kinase assay, Kinase HotSpot
Conditions in all cases: compound 0.5 µM; ATP 10 µM
[1] = molecular target: PRKD1 (human) (UniProt Q15139)
[2] = molecular target: STK24 (human) (UniProt Q9Y6E0)
[3] = molecular target: HIPK3 (human) (UniProt Q9H422)
[4] = molecular target: CSK (human) (UniProt P41240)
[5] = molecular target: CDK9 CCNT1 (human) (UniProt P50750+O60563)
CDK9 CCNT1 (human), sequence (O60563 whole entry, looked up): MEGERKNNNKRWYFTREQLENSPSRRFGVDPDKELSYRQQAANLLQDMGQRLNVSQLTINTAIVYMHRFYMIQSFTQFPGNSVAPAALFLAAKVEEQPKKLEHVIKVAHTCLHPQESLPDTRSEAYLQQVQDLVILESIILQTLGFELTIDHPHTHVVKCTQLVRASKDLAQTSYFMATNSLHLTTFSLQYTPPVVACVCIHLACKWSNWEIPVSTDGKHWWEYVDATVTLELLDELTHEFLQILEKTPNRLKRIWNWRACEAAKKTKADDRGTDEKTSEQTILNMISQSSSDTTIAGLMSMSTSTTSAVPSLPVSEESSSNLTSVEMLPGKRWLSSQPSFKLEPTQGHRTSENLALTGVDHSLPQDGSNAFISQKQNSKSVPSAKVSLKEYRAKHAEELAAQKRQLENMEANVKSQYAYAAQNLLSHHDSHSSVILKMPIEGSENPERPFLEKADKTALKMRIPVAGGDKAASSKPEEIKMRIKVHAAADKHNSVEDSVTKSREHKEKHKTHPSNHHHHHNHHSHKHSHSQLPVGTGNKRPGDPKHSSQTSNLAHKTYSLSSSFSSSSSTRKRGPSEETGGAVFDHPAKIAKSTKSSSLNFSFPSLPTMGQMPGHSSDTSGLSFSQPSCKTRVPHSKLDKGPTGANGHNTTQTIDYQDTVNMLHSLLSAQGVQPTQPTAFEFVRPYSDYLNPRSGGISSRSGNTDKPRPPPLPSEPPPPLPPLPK
CDK9 CCNT1 (human), sequence (P50750 whole entry, looked up): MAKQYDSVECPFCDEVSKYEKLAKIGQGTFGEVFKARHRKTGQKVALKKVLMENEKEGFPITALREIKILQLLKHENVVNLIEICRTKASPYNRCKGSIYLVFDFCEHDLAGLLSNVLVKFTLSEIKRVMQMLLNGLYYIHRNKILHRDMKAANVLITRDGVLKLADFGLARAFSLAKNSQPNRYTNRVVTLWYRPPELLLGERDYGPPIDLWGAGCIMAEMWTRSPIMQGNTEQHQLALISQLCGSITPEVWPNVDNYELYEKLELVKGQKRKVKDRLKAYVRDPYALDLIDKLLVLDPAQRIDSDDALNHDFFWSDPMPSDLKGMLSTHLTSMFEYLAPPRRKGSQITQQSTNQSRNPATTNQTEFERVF

[6] = molecular target: DAPK1 (human) (UniProt P53355)
[7] = molecular target: CDK9 CCNK (human) (UniProt O75909+P50750)
[8] = molecular target: NTRK3 (human) (UniProt Q16288)
NTRK3 (human), sequence (Q16288 whole entry, looked up): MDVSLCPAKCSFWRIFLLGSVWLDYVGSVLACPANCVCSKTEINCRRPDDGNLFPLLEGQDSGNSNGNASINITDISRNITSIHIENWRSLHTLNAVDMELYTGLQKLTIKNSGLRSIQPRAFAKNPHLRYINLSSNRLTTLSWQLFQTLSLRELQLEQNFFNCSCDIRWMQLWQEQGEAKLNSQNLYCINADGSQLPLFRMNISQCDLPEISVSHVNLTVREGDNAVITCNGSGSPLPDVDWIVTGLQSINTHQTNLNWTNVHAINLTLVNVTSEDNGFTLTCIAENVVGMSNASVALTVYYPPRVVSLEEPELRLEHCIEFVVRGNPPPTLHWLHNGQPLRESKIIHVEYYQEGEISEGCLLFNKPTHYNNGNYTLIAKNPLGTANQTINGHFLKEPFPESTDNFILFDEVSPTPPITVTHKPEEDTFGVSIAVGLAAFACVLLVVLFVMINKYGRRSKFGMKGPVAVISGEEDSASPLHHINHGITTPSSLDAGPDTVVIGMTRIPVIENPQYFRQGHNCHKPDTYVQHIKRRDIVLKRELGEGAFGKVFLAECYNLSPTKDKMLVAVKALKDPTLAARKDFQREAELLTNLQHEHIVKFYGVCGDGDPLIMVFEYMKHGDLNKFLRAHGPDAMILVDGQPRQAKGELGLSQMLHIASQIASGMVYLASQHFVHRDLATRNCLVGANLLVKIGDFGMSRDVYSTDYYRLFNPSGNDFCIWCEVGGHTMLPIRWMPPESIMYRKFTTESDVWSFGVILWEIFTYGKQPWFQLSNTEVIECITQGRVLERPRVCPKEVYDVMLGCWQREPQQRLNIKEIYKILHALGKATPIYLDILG

[9] = molecular target: EPHA7 (human) (UniProt Q15375)
[10] = molecular target: EPHA4 (human) (UniProt P54764)
[11] = molecular target: PAK7 (human) (UniProt Q9P286)
[12] = molecular target: SGK3 (human) (UniProt Q96BR1)
[13] = molecular target: MAP3K5 (human) (UniProt Q99683)
[14] = molecular target: MAP4K2 (human) (UniProt Q12851)
[15] = molecular target: DMPK (human) (UniProt Q09013)
[16] = molecular target: LRRK2 (human) (UniProt Q5S007)
[17] = molecular target: TNK2 (human) (UniProt Q07912)
[18] = molecular target: JAK1 JH1 catalytic (human) (UniProt P23458)
[19] = molecular target: EPHA8 (human) (UniProt P29322)
[20] = molecular target: SYK (human) (UniProt P43405)
[21] = molecular target: AURKB (human) (UniProt Q96GD4)
[22] = molecular target: PIM2 (human) (UniProt Q9P1W9)
[23] = molecular target: ADRBK2 (human) (UniProt P35626)
ADRBK2 (human), sequence (P35626 whole entry, looked up): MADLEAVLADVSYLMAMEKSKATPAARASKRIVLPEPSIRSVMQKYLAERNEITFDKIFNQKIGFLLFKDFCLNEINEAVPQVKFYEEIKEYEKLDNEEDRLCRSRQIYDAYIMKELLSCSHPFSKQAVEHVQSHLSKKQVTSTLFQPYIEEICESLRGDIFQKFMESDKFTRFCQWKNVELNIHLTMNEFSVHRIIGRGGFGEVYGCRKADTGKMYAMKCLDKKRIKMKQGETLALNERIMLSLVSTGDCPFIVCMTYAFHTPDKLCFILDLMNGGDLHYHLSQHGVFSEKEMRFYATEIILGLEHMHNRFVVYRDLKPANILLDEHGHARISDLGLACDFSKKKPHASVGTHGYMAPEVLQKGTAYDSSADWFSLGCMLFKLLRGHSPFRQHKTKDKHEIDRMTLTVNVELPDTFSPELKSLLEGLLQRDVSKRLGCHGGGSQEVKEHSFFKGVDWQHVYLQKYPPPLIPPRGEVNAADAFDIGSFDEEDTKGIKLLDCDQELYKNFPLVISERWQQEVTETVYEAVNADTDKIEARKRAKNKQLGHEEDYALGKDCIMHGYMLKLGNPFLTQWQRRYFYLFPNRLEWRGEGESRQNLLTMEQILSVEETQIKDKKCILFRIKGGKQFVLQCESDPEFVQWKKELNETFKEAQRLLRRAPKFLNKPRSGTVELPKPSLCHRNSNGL

[24] = molecular target: NEK6 (human) (UniProt Q9HC98)
[25] = molecular target: STK3 (human) (UniProt Q13188)
[26] = molecular target: TYRO3 (human) (UniProt Q06418)
[27] = molecular target: PRKCH (human) (UniProt P24723)
[28] = molecular target: MAPKAPK2 (human) (UniProt P49137)
[29] = molecular target: PHKG2 (human) (UniProt P15735)
[30] = molecular target: STK39 (human) (UniProt Q9UEW8)
[31] = molecular target: INSR (human) (UniProt P06213)
INSR (human), sequence (P06213 whole entry, looked up): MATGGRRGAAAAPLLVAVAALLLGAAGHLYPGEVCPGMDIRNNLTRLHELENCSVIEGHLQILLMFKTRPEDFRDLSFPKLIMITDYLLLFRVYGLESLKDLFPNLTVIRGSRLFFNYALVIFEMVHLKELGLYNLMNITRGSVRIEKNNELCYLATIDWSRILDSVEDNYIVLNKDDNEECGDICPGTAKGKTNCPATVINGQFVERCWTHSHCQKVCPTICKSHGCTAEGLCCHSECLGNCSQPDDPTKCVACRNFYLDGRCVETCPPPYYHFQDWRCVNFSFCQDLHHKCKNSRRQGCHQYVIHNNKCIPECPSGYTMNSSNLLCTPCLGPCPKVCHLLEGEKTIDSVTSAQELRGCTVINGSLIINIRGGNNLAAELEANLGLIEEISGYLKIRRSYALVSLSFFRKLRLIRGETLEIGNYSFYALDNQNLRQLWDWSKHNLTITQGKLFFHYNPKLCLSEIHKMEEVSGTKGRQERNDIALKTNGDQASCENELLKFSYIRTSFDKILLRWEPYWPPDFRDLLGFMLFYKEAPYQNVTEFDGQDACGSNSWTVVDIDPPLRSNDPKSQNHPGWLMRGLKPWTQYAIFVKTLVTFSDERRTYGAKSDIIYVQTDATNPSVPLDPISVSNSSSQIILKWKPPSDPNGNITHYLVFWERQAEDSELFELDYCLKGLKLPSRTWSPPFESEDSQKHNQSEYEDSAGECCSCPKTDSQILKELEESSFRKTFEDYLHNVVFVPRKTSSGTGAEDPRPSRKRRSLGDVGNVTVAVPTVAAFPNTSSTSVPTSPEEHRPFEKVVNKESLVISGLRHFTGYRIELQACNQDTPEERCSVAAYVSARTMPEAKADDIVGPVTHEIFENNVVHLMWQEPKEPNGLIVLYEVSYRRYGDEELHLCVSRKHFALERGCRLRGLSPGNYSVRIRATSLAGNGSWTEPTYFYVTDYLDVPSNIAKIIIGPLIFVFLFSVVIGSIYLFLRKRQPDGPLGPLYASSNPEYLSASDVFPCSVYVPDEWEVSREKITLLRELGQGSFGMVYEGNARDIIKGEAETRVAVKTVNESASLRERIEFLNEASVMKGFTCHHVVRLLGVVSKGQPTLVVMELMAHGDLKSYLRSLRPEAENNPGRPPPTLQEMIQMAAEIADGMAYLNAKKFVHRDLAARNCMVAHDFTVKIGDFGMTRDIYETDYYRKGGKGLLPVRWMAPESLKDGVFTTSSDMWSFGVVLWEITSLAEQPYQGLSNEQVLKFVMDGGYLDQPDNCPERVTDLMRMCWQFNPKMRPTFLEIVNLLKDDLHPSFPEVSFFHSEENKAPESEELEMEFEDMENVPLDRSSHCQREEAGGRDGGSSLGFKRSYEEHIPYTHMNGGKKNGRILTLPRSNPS

[32] = molecular target: GRK5 (human) (UniProt P34947)
[33] = molecular target: NUAK1 (human) (UniProt O60285)
[34] = molecular target: KIT (human) (UniProt P10721)
[35] = molecular target: BMX (human) (UniProt P51813)
[36] = molecular target: CDK1 CCNA2 (human) (UniProt P06493+P20248)
[37] = molecular target: YES1 (human) (UniProt P07947)
[38] = molecular target: JAK3 JH1 JH2 (human) (UniProt P52333)
[39] = molecular target: MELK (human) (UniProt Q14680)
[40] = molecular target: CHEK2 (human) (UniProt O96017)
[41] = molecular target: PRKG1 (human) (UniProt Q13976)
[42] = molecular target: MATK (human) (UniProt P42679)

PRKD1 (human), sequence (Q15139 whole entry, looked up): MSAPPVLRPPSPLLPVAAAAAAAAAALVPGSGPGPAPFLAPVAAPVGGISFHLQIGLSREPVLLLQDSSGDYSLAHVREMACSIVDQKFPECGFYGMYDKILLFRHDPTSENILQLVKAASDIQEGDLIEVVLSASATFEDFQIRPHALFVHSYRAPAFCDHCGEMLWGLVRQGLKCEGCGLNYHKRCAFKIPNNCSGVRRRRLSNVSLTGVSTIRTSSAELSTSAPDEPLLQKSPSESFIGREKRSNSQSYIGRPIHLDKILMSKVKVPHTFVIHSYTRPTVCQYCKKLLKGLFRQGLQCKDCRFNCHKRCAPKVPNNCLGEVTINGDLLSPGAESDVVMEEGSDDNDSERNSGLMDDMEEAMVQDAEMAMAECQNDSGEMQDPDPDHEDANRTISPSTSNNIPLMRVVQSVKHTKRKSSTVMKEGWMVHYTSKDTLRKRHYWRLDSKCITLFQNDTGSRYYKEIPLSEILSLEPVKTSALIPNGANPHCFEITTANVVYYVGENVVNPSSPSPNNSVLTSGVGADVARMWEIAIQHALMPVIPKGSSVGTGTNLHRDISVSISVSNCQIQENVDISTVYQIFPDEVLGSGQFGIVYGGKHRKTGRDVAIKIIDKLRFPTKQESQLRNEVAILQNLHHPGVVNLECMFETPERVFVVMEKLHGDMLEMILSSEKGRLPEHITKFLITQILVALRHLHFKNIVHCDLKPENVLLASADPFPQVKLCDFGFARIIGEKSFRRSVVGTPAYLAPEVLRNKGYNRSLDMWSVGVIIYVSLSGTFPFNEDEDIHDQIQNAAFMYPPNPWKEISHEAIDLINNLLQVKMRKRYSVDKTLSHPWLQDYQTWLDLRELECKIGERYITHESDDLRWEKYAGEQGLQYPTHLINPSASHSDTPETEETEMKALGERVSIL

## COc1ccc(C(=O)Nc2sc3c(c2C(N)=O)CCCC3)cc1OC
[1]
  residual activity: 99.6%
[2]
  residual activity: 93.9%
[3]
  residual activity: 105%
[4]
  residual activity: 98.8%
[5]
  residual activity: 102%
[6]
  residual activity: 78.2%
[7]
  residual activity: 85.7%
[8]
  residual activity: 57.7%
[9]
  residual activity: 96.2%
[10]
  residual activity: 104%
[11]
  residual activity: 96.6%
[12]
  residual activity: 103%
[13]
  residual activity: 94.8%
[14]
  residual activity: 106%
[15]
  residual activity: 108%
[16]
  residual activity: 87.4%
[17]
  residual activity: 93.4%
[18]
  residual activity: 104%
[19]
  residual activity: 114%
[20]
  residual activity: 91.2%
[21]
  residual activity: 96.2%
[22]
  residual activity: 98.5%
[23]
  residual activity: 103%
[24]
  residual activity: 92.7%
[25]
  residual activity: 99.6%
[26]
  residual activity: 98.1%
[27]
  residual activity: 101%
[28]
  residual activity: 104%
[29]
  residual activity: 106%
[30]
  residual activity: 101%
[31]
  residual activity: 93.2%
[32]
  residual activity: 104%
[33]
  residual activity: 81.8%
[34]
  residual activity: 46.2%
[35]
  residual activity: 89.8%
[36]
  residual activity: 105%
[37]
  residual activity: 88.3%
[38]
  residual activity: 108%
[39]
  residual activity: 46%
[40]
  residual activity: 93%
[41]
  residual activity: 87.5% and 97%
[42]
  residual activity: 92.7%

## COc1ccc2c(c1)c(C1=C(c3c[nH]c4ccccc34)C(=O)NC1=O)cn2CCCN(C)C
[1]
  residual activity: 68.8%
[2]
  residual activity: 36.6%
[3]
  residual activity: 74.1%
[4]
  residual activity: 84%
[5]
  residual activity: 69.7%
[6]
  residual activity: 105%
[7]
  residual activity: 54.6%
[8]
  residual activity: 54.9%
[9]
  residual activity: 88.8%
[10]
  residual activity: 94.5%
[11]
  residual activity: 67.6%
[12]
  residual activity: 101%
[13]
  residual activity: 95.1%
[14]
  residual activity: 56.3%
[15]
  residual activity: 97.7%
[16]
  residual activity: 87%
[17]
  residual activity: 77.9%
[18]
  residual activity: 100%
[19]
  residual activity: 102%
[20]
  residual activity: 68.5%
[21]
  residual activity: 88.5%
[22]
  residual activity: 90.5%
[23]
  residual activity: 96.3%
[24]
  residual activity: 101%
[25]
  residual activity: 72.2%
[26]
  residual activity: 90.7%
[27]
  residual activity: 6.85%
[28]
  residual activity: 99.7%
[29]
  residual activity: 98.3%
[30]
  residual activity: 111%
[31]
  residual activity: 94.1%
[32]
  residual activity: 114%
[33]
  residual activity: 32.2%
[34]
  residual activity: 88.8%
[35]
  residual activity: 96.3%
[36]
  residual activity: 95.7%
[37]
  residual activity: 90.4%
[38]
  residual activity: 138%
[39]
  residual activity: 70.7%
[40]
  residual activity: 38.8%
[41]
  residual activity: 79.4% and 99.5%
[42]
  residual activity: 99.3%

## COc1cc2ncnc(Nc3ccc(Oc4ccccc4)cc3)c2cc1OC
[1]
  residual activity: 95.6%
[2]
  residual activity: 91.6%
[3]
  residual activity: 103%
[4]
  residual activity: 18.8%
[5]
  residual activity: 86.7%
[6]
  residual activity: 105%
[7]
  residual activity: 96.7%
[8]
  residual activity: 99.7%
[9]
  residual activity: 100%
[10]
  residual activity: 106%
[11]
  residual activity: 103%
[12]
  residual activity: 101%
[13]
  residual activity: 107%
[14]
  residual activity: 104%
[15]
  residual activity: 106%
[16]
  residual activity: 65.3%
[17]
  residual activity: 49%
[18]
  residual activity: 105%
[19]
  residual activity: 97.4%
[20]
  residual activity: 98.6%
[21]
  residual activity: 50.9%
[22]
  residual activity: 107%
[23]
  residual activity: 91.8%
[24]
  residual activity: 93%
[25]
  residual activity: 121%
[26]
  residual activity: 83.4%
[27]
  residual activity: 87.3%
[28]
  residual activity: 103%
[29]
  residual activity: 100%
[30]
  residual activity: 102%
[31]
  residual activity: 88.8%
[32]
  residual activity: 97.4%
[33]
  residual activity: 105%
[34]
  residual activity: 75.6%
[35]
  residual activity: 76.1%
[36]
  residual activity: 92.2%
[37]
  residual activity: 7.96%
[38]
  residual activity: 93.1%
[39]
  residual activity: 101%
[40]
  residual activity: 29.6%
[41]
  residual activity: 92.5% and 93.6%
[42]
  residual activity: 94.3%
